The data set is described as follows: PK after i.v. and s.c. administration to Göttingen minipig. To be noted: female, in vivo; for clearance: read-out: CL (ml/hr/kg), Intravenous PK (converted). A digest of the protocol:
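Female Göttingen minipigs (6-12 months, ~22 kg) and domestic LYD pigs (4-5 months, ~80 kg) given CNP compounds i.v. (30-60 or 15-43 nmol/kg) or s.c. neck (55-62 or 20-30 nmol/kg) via catheter/pen. EDTA plasma sampled up to 14 days, CNP and cGMP by LC-MS; non-compartmental PK, F from dose-normalized AUC s.c./i.v.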

Setting [1] is: iv, Göttingen Minipig, i.v., read-out: T½, iv (converted).
The mark [2] stands for this setting: sc, Göttingen Minipig, s.c. bioavailability, read-out: F (%), Subcutaneous PK.
[3] abbreviates: sc, Göttingen Minipig, s.c., read-out: T½, sc (converted).

Where two headings read alike, the source gives them in different places. Starred links: 1 amine or outer side, 2 acyl side, 3 side chain; linkers in the order of their positions; H or OH if unused. Positions of bridges follow the written chain, without caps; N, C: chain ends. Residues, ends and D or L forms follow the SMILES beside them. *: point of attachment. C18 diacid = O=C(O)CCCCCCCCCCCCCCCCC(=O)*; γGlu = O=C(O)[C@H](CCC(=O)[*:2])N[*:1]; AEEA = NCCOCCOCC(=O)O

On to `CC[C@H](C)[C@@H]1NC(=O)[C@H](CCCNC(=N)N)NC(=O)[C@H](CC(=O)O)NC(=O)[C@H](CC(C)C)NC(=O)[C@@H]2CCCN2C(=O)[C@H](CC(C)C)NC(=O)CNC(=O)[C@H](Cc2ccccc2)NC(=O)[C@@H](NC(=O)CNC(=O)[C@H](CCC(N)=O)NC(=O)[C@H](CO)NC(=O)[C@H](CC(C)C)NC(=O)CNC(=O)[C@H](CCCCN)NC(=O)[C@H](CCCCN)NC(=O)[C@H](CCC(N)=O)NC(=O)[C@H](C)NC(=O)CNC(=O)[C@H](CCCCN)NC(=O)[C@H](Cc2ccc(O)cc2)NC(=O)[C@H](CCCCN)NC(=O)[C@H](CCCNC(=N)N)NC(=O)[C@H](C)NC(=O)COCCOCCNC(=O)COCCOCCNC(=O)COCCOCCNC(=O)COCCOCCNC(=O)CC[C@H](NC(=O)CC[C@H](NC(=O)CC[C@H](NC(=O)CC[C@H](NC(=O)CC[C@H](NC(=O)CCCCCCCCCCCCCCCCC(=O)O)C(=O)O)C(=O)O)C(=O)O)C(=O)O)C(=O)O)CSSC[C@@H](C(=O)O)NC(=O)CNC(=O)[C@H](CC(C)C)NC(=O)CNC(=O)[C@H](CO)NC(=O)[C@H](CC(C)C)NC(=O)[C@H](CO)NC(=O)CNC1=O` [Compound 9407] ({C18 diacid-γGlu-γGlu-γGlu-γGlu-γGlu-AEEA-AEEA-AEEA-AEEA}-ARKYKGAQKKGLSQGCFGLPLDRIGSLSGLGC-OH; disulfide 16-32), for which the clearance (iv, Göttingen Minipig, i.v.) was 1.2 mL/h/kg. Besides, the half-life is 82 h under setting [1] and 92 h under setting [3]. Besides, the bioavailability under setting [2] was determined as 86%.
The corresponding values for `CC[C@H](C)[C@@H]1NC(=O)[C@H](CCCNC(=N)N)NC(=O)[C@H](CC(=O)O)NC(=O)[C@H](CC(C)C)NC(=O)[C@@H]2CCCN2C(=O)[C@H](CC(C)C)NC(=O)CNC(=O)[C@H](Cc2ccccc2)NC(=O)[C@@H](NC(=O)CNC(=O)[C@H](CCC(N)=O)NC(=O)[C@H](CO)NC(=O)CNC(=O)CNC(=O)[C@H](CCCCN)NC(=O)[C@H](CCCCN)NC(=O)[C@H](CCC(N)=O)NC(=O)[C@H](C)NC(=O)CNC(=O)[C@H](CCCCN)NC(=O)[C@H](Cc2ccc(O)cc2)NC(=O)COCCOCCNC(=O)COCCOCCNC(=O)COCCOCCNC(=O)COCCOCCNC(=O)CC[C@H](NC(=O)CC[C@H](NC(=O)CCCCCCCCCCCCCCCCC(=O)O)C(=O)O)C(=O)O)CSSC[C@@H](C(=O)O)NC(=O)CNC(=O)[C@H](CC(C)C)NC(=O)CNC(=O)[C@H](CO)NC(=O)[C@H](CC(C)C)NC(=O)[C@H](CO)NC(=O)CNC1=O` [Compound 9435] ({C18 diacid-γGlu-γGlu-AEEA-AEEA-AEEA-AEEA}-YKGAQKKGGSQGCFGLPLDRIGSLSGLGC-OH; disulfide 13-29) are 1.02 mL/h/kg, 77 h, 82 h and 77%.
For `CC[C@H](C)[C@@H]1NC(=O)[C@H](CCCNC(=N)N)NC(=O)[C@H](CC(=O)O)NC(=O)[C@H](CC(C)C)NC(=O)[C@@H]2CCCN2C(=O)[C@H](CC(C)C)NC(=O)CNC(=O)[C@H](Cc2ccccc2)NC(=O)[C@@H](NC(=O)CNC(=O)[C@H](CCC(N)=O)NC(=O)[C@H](CO)NC(=O)[C@H](CC(C)C)NC(=O)CNC(=O)[C@H](CCCCN)NC(=O)[C@H](CCCCN)NC(=O)[C@H](CCC(N)=O)NC(=O)[C@H](C)NC(=O)CNC(=O)[C@H](CCCCN)NC(=O)[C@H](Cc2ccc(O)cc2)NC(=O)COCCOCCNC(=O)COCCOCCNC(=O)COCCOCCNC(=O)COCCOCCNC(=O)CC[C@H](NC(=O)CC[C@H](NC(=O)CC[C@H](NC(=O)CCCCCCCCCCCCCCCCC(=O)O)C(=O)O)C(=O)O)C(=O)O)CSSC[C@@H](C(=O)O)NC(=O)CNC(=O)[C@H](CC(C)C)NC(=O)CNC(=O)[C@H](CO)NC(=O)[C@H](CC(C)C)NC(=O)[C@H](CO)NC(=O)CNC1=O` [Compound 9480] ({C18 diacid-γGlu-γGlu-γGlu-AEEA-AEEA-AEEA-AEEA}-YKGAQKKGLSQGCFGLPLDRIGSLSGLGC-OH; disulfide 13-29) the same measures were 1.13 mL/h/kg, 74 h, 67 h and 87%.
Regarding `CC[C@H](C)[C@@H]1NC(=O)[C@H](CCCNC(=N)N)NC(=O)[C@H](CC(=O)O)NC(=O)[C@H](CC(C)C)NC(=O)[C@@H]2CCCN2C(=O)[C@H](CC(C)C)NC(=O)CNC(=O)[C@H](Cc2ccccc2)NC(=O)[C@@H](NC(=O)CNC(=O)[C@H](CO)NC(=O)[C@H](CO)NC(=O)[C@H](CC(C)C)NC(=O)CNC(=O)[C@H](CCCCN)NC(=O)[C@H](CCCCN)NC(=O)[C@H](CCC(N)=O)NC(=O)[C@H](C)NC(=O)CNC(=O)[C@H](CCCCN)NC(=O)[C@H](Cc2ccc(O)cc2)NC(=O)[C@H](CCCCN)NC(=O)[C@H](CCCNC(=N)N)NC(=O)[C@H](C)NC(=O)[C@H](CCC(N)=O)NC(=O)[C@@H]2CCCN2C(=O)[C@H](Cc2c[nH]cn2)NC(=O)[C@H](CCC(=O)O)NC(=O)[C@H](CCC(N)=O)NC(=O)CC[C@H](NC(=O)CC[C@H](NC(=O)CC[C@H](NC(=O)CC[C@H](NC(=O)CC[C@H](NC(=O)CCCCCCCCCCCCCCCCC(=O)O)C(=O)O)C(=O)O)C(=O)O)C(=O)O)C(=O)O)CSSC[C@@H](C(=O)O)NC(=O)CNC(=O)[C@H](CC(C)C)NC(=O)CNC(=O)[C@H](CO)NC(=O)[C@H](CC(C)C)NC(=O)[C@H](CO)NC(=O)CNC1=O` [Compound 9482] ({C18 diacid-γGlu-γGlu-γGlu-γGlu-γGlu}-QEHPQARKYKGAQKKGLSSGCFGLPLDRIGSLSGLGC-OH; disulfide 21-37), the clearance (iv, Göttingen Minipig, i.v.) was 1.07 mL/h/kg. Besides, the half-life reads like this: under setting [1], 89 h; under setting [3], 84 h. Moreover, the bioavailability under setting [2] was found to be 89%.
Take `CC[C@H](C)[C@@H]1NC(=O)[C@H](CCCNC(=N)N)NC(=O)[C@H](CCC(=O)O)NC(=O)[C@H](CC(C)C)NC(=O)[C@H](CCCCN)NC(=O)[C@H](CC(C)C)NC(=O)CNC(=O)[C@H](Cc2ccccc2)NC(=O)[C@@H](NC(=O)CNC(=O)[C@H](CCCCN)NC(=O)[C@H](CO)NC(=O)[C@H](CC(C)C)NC(=O)CNC(=O)[C@H](CCCCN)NC(=O)[C@H](CCCCN)NC(=O)[C@H](CCC(N)=O)NC(=O)[C@H](C)NC(=O)CNC(=O)[C@H](CCCCN)NC(=O)[C@H](Cc2ccc(O)cc2)NC(=O)[C@H](CCCCN)NC(=O)[C@H](CCCNC(=N)N)NC(=O)[C@H](C)NC(=O)COCCOCCNC(=O)COCCOCCNC(=O)CC[C@H](NC(=O)CCCCCCCCCCCCCCCCC(=O)O)C(=O)O)CSSC[C@@H](C(=O)O)NC(=O)CNC(=O)[C@H](CC(C)C)NC(=O)CNC(=O)[C@H](CO)NC(=O)[C@H](CC(C)C)NC(=O)[C@H](CO)NC(=O)CNC1=O` [compound 0776] ({C18 diacid-γGlu-AEEA-AEEA}-ARKYKGAQKKGLSKGCFGLKLERIGSLSGLGC-OH; disulfide 16-32): the bioavailability (Göttingen minipig and domestic LYD pig, minipig, sc) was in the range of 7 to 13%.
